PubChem BioAssay AID330 (DTP/NCI, 2004)
Values joined by “and” are separate entries in the source; they are usually repeats but may differ in a detail not shown here. Equal entries are not always repeated. Toxic doses and inconclusive results are not listed.

System: P388 leukemia ip, CD2F1 mice, survival T/C
Assay: NCI In Vivo Anticancer Drug Screen. Data for tumor model P388 Leukemia (intraperitoneal) in CD2F1 (CDF1) mice
Conditions: endpoint: median survival time, higher = longer survival
Summary of the method: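 Mice carrying the transplanted tumor received test compound or vehicle. Survival was recorded in each group, and the value is the treated-group measurement divided by that of the vehicle-treated control group.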

[1] = dose: 50.0 mg/kg/injection, schedule: Q01DX005 (ip), vehicle: saline with Tween-80
[2] = dose: 100.0 mg/kg/injection, schedule: Q01DX005 (ip), vehicle: saline with Tween-80
[3] = dose: 200.0 mg/kg/injection, schedule: Q01DX005 (ip), vehicle: saline with Tween-80
[4] = dose: 100.0 mg/kg/injection, schedule: Q04DX002 (ip), vehicle: saline with Tween-80
[5] = dose: 200.0 mg/kg/injection, schedule: Q04DX002 (ip), vehicle: saline with Tween-80
[6] = dose: 400.0 mg/kg/injection, schedule: Q04DX002 (ip), vehicle: saline with Tween-80
[7] = dose: 100.0 mg/kg/injection, schedule: Q01DX009 (ip), vehicle: saline with Tween-80
[8] = dose: 200.0 mg/kg/injection, schedule: Q01DX009 (ip), vehicle: saline with Tween-80
[9] = dose: 400.0 mg/kg/injection, schedule: Q01DX009 (ip), vehicle: saline with Tween-80
[10] = dose: 50.0 mg/kg/injection, schedule: Q01DX009 (ip), vehicle: saline with Tween-80
[11] = dose: 60.0 mg/kg/injection, schedule: Q01DX005 (ip), vehicle: saline
[12] = dose: 100.0 mg/kg/injection, schedule: Q01DX009 (ip), vehicle: saline
[13] = dose: 200.0 mg/kg/injection, schedule: Q01DX009 (ip), vehicle: saline

`COC(=O)C1C(COS(C)(=O)=O)ON2CCC(OC)(OC)C12` (stereo not drawn) was tested, and the T/C (dose: 50.0 mg/kg/injection, schedule: Q01DX005 (ip), vehicle: saline) was 95 % of control, the T/C (dose: 100.0 mg/kg/injection, schedule: Q01DX005 (ip), vehicle: saline) was 98 % of control and the T/C (dose: 200.0 mg/kg/injection, schedule: Q01DX005 (ip), vehicle: saline) was 95 % of control.

With `CCOc1c(N=Nc2ccccc2Cl)c(-c2ccccc2)nn1C(N)=S` the T/C [1] was 94 % of control, the T/C [2] was 90 % of control and the T/C [3] was 102 % of control.

`O=C(N=C1SC(=NC2CCCCC2)N1C1CCCCC1)c1ccccc1` was tested, and the T/C (dose: 100.0 mg/kg/injection, schedule: Q01DX001 (ip), vehicle: Klucel (hydroxypropylcellulose) (HPC)) was 95 % of control and the T/C (dose: 200.0 mg/kg/injection, schedule: Q01DX001 (ip), vehicle: Klucel (hydroxypropylcellulose) (HPC)) was 100 % of control.

`COC(=O)C/C(C)=N/SC(c1ccccc1)(c1ccccc1)c1ccccc1` was tested, and the T/C [4] was 95 % of control, the T/C [5] was 101 % of control and the T/C [6] was 94 % of control.

`Cc1c(Cl)ccc2c(C(O)CBr)cc(-c3ccccc3)nc12` (stereo not drawn) was tested, and the T/C [7] was 103 % of control, the T/C [8] was 109 % of control and the T/C [9] was 100 % of control.

For `Cc1cc(=NC(C)(C)C)nc2c3ccccc3c(Cl)cn12`, the T/C (dose: 1.56 mg/kg/injection, schedule: Q01DX005 (ip), vehicle: saline with Tween-80) was 100 % of control, the T/C (dose: 3.13 mg/kg/injection, schedule: Q01DX005 (ip), vehicle: saline with Tween-80) was 100 % of control and the T/C (dose: 6.25 mg/kg/injection, schedule: Q01DX005 (ip), vehicle: saline with Tween-80) was 103 % of control and 98 % of control.

With `c1ccc(CSc2nnc3c4ccccc4c4ccccc4c3n2)cc1` the T/C [10] was 100 % of control, the T/C [7] was 102 % of control and the T/C [8] was 101 % of control.

With `CCC12C=CCN3CC[C@@]4(c5cc([C@@]6(C(=O)OC)C[C@@H]7CN(CCc8c6[nH]c6ccccc86)C[C@](O)(CC)C7)c(OC)cc5N(C)[C@H]4[C@@](O)(C(=O)OC)[C@@H]1OC(=O)CCCCCCCCCCCN1C(=O)C=CC1=O)[C@H]32` (stereo partly drawn) the T/C (dose: 6.25 mg/kg/injection, schedule: Q01DX001 (ip), vehicle: other) was 124 % of control, the T/C (dose: 12.5 mg/kg/injection, schedule: Q01DX001 (ip), vehicle: saline with Tween-80) was 161 % of control and the T/C (dose: 25.0 mg/kg/injection, schedule: Q01DX001 (ip), vehicle: other) was 200 % of control. The T/C (dose: 25.0 mg/kg/injection, schedule: Q01DX001 (ip), vehicle: saline with Tween-80) was 238 % of control, the T/C (dose: 25.0 mg/kg/injection, schedule: Q01DX001 (ip), vehicle: saline) was 202 % of control and the T/C (dose: 50.0 mg/kg/injection, schedule: Q01DX001 (ip), vehicle: saline) was 215 % of control.

In the case of `Cn1c2ccccc2c(=O)c2c(O)cc3c(c21)CC(C1(C)CO1)O3` (stereo not drawn), the T/C (dose: 2.0 mg/kg/injection, schedule: Q01DX005 (ip), vehicle: Klucel (hydroxypropylcellulose) (HPC)) is reported as 99 % of control, the T/C (dose: 4.0 mg/kg/injection, schedule: Q01DX005 (ip), vehicle: Klucel (hydroxypropylcellulose) (HPC)) is reported as 105 % of control and 107 % of control and the T/C (dose: 8.0 mg/kg/injection, schedule: Q01DX005 (ip), vehicle: Klucel (hydroxypropylcellulose) (HPC)) is reported as 103 % of control and 107 % of control. For the same compound, the T/C (dose: 16.0 mg/kg/injection, schedule: Q01DX005 (ip), vehicle: Klucel (hydroxypropylcellulose) (HPC)) was 108 % of control and 116 % of control.

`N#C/C(=C1/OC(=N)C(c2ccc(Cl)cc2)C1=O)c1ccc(Cl)cc1` (stereo not drawn) was tested, and the T/C [1] was 110 % of control and the T/C [2] was 99 % of control.

For `Cc1cc(C)n(C2=NCCN2)n1`, the T/C [11] was 99 % of control and the T/C (dose: 120.0 mg/kg/injection, schedule: Q01DX005 (ip), vehicle: saline) was 96 % of control.

`CCOc1ccnc2c(C)c3c([nH]c4ccccc43)c(C)c12` was tested, and the T/C [4] was 98 % of control, the T/C [5] was 94 % of control and the T/C [6] was 96 % of control.

For `O=C(Nc1ccc(C2=NCCN2)cc1)c1ccc(NC(=O)c2ccc(C3=NCCN3)cc2)cc1`, the T/C (dose: 18.0 mg/kg/injection, schedule: Q01DX010 (ip), vehicle: saline) was 154 % of control and the T/C (dose: 27.0 mg/kg/injection, schedule: Q01DX010 (ip), vehicle: saline) was 172 % of control.

In the case of `O=C1C2(Cl)C(Cl)=C(Cl)C1(Cl)C1(Cl)C(Cl)=C(Cl)C(=O)C21Cl` (stereo not drawn), the T/C (dose: 10.0 mg/kg/injection, schedule: Q01DX009 (ip), vehicle: saline with Tween-80) is reported as 104 % of control, the T/C (dose: 20.0 mg/kg/injection, schedule: Q01DX009 (ip), vehicle: saline with Tween-80) is reported as 104 % of control and the T/C (dose: 40.0 mg/kg/injection, schedule: Q01DX009 (ip), vehicle: saline with Tween-80) is reported as 100 % of control.

`O=C1C2C3CCC(O3)C2C(=O)N1CC#CCCl` (stereo not drawn) was tested, and the T/C (dose: 7.5 mg/kg/injection, schedule: Q01DX005 (ip), vehicle: saline with Tween-80) was 96 % of control and the T/C (dose: 15.0 mg/kg/injection, schedule: Q01DX005 (ip), vehicle: saline with Tween-80) was 100 % of control.

For `C(=N\SC(c1ccccc1)(c1ccccc1)c1ccccc1)/c1ccccc1`, the T/C [1] was 100 % of control and the T/C [2] was 103 % of control.

`COc1cc(CN)ccc1O` was tested, and the T/C [10] was 103 % of control, the T/C [7] was 110 % of control and the T/C [12] was 104 % of control. For the same compound, the T/C [8] was 103 % of control, the T/C [13] was 101 % of control and the T/C [9] was 104 % of control. For the same compound, the T/C (dose: 400.0 mg/kg/injection, schedule: Q01DX009 (ip), vehicle: saline) was 104 % of control and the T/C (dose: 600.0 mg/kg/injection, schedule: Q01DX009 (ip), vehicle: saline) was 107 % of control.

`CCCCCCCCC(=O)c1c(OC)oc(/C=N/NC(N)=S)cc1=O` was tested, and the T/C (dose: 100.0 mg/kg/injection, schedule: Q01DX009 (ip), vehicle: Klucel (hydroxypropylcellulose) (HPC)) was 86 % of control, the T/C (dose: 200.0 mg/kg/injection, schedule: Q01DX009 (ip), vehicle: Klucel (hydroxypropylcellulose) (HPC)) was 91 % of control and the T/C (dose: 400.0 mg/kg/injection, schedule: Q01DX009 (ip), vehicle: Klucel (hydroxypropylcellulose) (HPC)) was 98 % of control.

`CCOc1ccc2c(c1)n([O-])c1cc(Cl)ccc1[n+]2=O` was tested, and the T/C (dose: 12.5 mg/kg/injection, schedule: Q01DX005 (ip), vehicle: saline with Tween-80) was 111 % of control, the T/C (dose: 25.0 mg/kg/injection, schedule: Q01DX005 (ip), vehicle: saline with Tween-80) was 108 % of control and the T/C [1] was 103 % of control and 115 % of control. For the same compound, the T/C [2] was 107 % of control.

In the case of `CC(NC(=O)C(C)Oc1ccc(Cl)cc1Cl)C(=O)O` (stereo not drawn), the T/C [1] is reported as 101 % of control, the T/C [2] is reported as 99 % of control and the T/C [3] is reported as 100 % of control.

With `COc1ccc(C(=O)c2c(C(=O)NOCCCc3ccccc3)[nH]c(=O)c(C#N)c2C(=O)NOCCCc2ccccc2)cc1` the T/C (dose: 30.0 mg/kg/injection, schedule: Q01DX005 (ip), vehicle: saline with Tween-80) was 102 % of control, the T/C (dose: 60.0 mg/kg/injection, schedule: Q01DX005 (ip), vehicle: saline with Tween-80) was 105 % of control and the T/C [11] was 109 % of control. The T/C (dose: 120.0 mg/kg/injection, schedule: Q01DX005 (ip), vehicle: saline with Tween-80) was 96 % of control.

In the case of `CCCCCCCCCCCCCCOC(=O)C(N)Cc1ccc(O)cc1` (stereo not drawn), the T/C (dose: 60.0 mg/kg/injection, schedule: Q01DX005 (ip), vehicle: Klucel (hydroxypropylcellulose) (HPC)) is reported as 100 % of control, the T/C (dose: 120.0 mg/kg/injection, schedule: Q01DX005 (ip), vehicle: Klucel (hydroxypropylcellulose) (HPC)) is reported as 100 % of control and the T/C (dose: 240.0 mg/kg/injection, schedule: Q01DX005 (ip), vehicle: Klucel (hydroxypropylcellulose) (HPC)) is reported as 100 % of control.

`O=C(NNCNNC(=O)c1ccncc1)c1ccncc1` was tested, and the T/C (dose: 50.0 mg/kg/injection, schedule: Q01DX005 (ip), vehicle: Klucel (hydroxypropylcellulose) (HPC)) was 100 % of control, the T/C (dose: 100.0 mg/kg/injection, schedule: Q01DX005 (ip), vehicle: Klucel (hydroxypropylcellulose) (HPC)) was 100 % of control and the T/C (dose: 200.0 mg/kg/injection, schedule: Q01DX005 (ip), vehicle: Klucel (hydroxypropylcellulose) (HPC)) was 96 % of control.

In the case of `OC(C/C=C/c1ccccc1)(c1ccccc1)c1ccccc1`, the T/C (dose: 50.0 mg/kg/injection, schedule: Q01DX009 (ip), vehicle: saline) is reported as 109 % of control, the T/C [12] is reported as 100 % of control and the T/C [13] is reported as 91 % of control.

`CC1CN1P(=O)(OCCC#N)N1CC1C` (stereo not drawn) was tested, and the T/C (dose: 25.0 mg/kg/injection, schedule: Q01DX009 (ip), vehicle: other) was 104 % of control, the T/C (dose: 44.0 mg/kg/injection, schedule: Q04DX003 (ip), vehicle: other) was 118 % of control and the T/C (dose: 50.0 mg/kg/injection, schedule: Q01DX009 (ip), vehicle: other) was 110 % of control. The T/C (dose: 66.0 mg/kg/injection, schedule: Q04DX003 (ip), vehicle: other) was 118 % of control, the T/C (dose: 100.0 mg/kg/injection, schedule: Q01DX009 (ip), vehicle: other) was 165 % of control and 177 % of control and the T/C (dose: 150.0 mg/kg/injection, schedule: Q04DX003 (ip), vehicle: other) was 163 % of control.
